# B1: TLuc16: TurboLuc16, SEQ ID NO: 33 (protein)
# chain: MEAEAERGKLPGKKLPLEVLIELEANARKAGCTRGCLICLSKIKCTAKMKKYIPGRCADYGGDKKTGQAGIVGAIVDIPEISGFKEMEPMEQFIAQVDRCADCTTGCLKGLANVKCSDLLKKWLPGRCATFADKIQSEVDNIKGLAGD
# modifications: TLuc (TurboLuc16)
# B2: NLuc: NanoLuc, SEQ ID NO: 32 (protein)
# chain: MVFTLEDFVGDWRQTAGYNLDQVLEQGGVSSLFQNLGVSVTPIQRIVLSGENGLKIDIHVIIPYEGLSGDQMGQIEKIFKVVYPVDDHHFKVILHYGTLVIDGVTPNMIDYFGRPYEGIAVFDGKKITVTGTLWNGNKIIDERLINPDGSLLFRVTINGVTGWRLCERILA
# modifications: NLuc (NanoLuc)
# B3: Mluc7: Metrida longa Luc7 M43L/M110L variant, SEQ ID NO: 34 (protein)
# chain: MNPTVNNDVNRGKMPGKKLPLEVLIELEANAFKAGCTRGCLICLSKIKCTAKMKQYIPGRCHDYGGDKKTGQAGIVGAIVDIPEISGFKEMEPLEQFIAQVDLCADCTTGCLKGLANVKCSELLKKWLPDRCASFADKIQKEAHNIKGLAGDR
# modifications: MLuc7 (Metrida longa Luc7) M43L/M110L variant
# B4: Renilla Luc: Renilla Luc, SEQ ID NO: 49 (protein)
# chain: MASKVYDPEQRKRMITGPQWWARCKQMNVLDSFINYYDSEKHAENAVIFLHGNAASSYLWRHVVPHIEPVARCIIPDLIGMGKSGKSGNGSYRLLDHYKYLTAWFELLNLPKKIIFVGHDWGACLAFHYSYEHQDKIKAIVHAESVVDVIESWDEWPDIEEDIALIKSEEGEKMVLENNFFVETMLPSKIMRKLEPEEFAAYLEPFKEKGEVRRPTLSWPREIPLVKGGKPDVVQIVRNYNAYLRASDDLPKMFIESDPGFFSNAIVEGAKKFPNTEFVKVKGLHFSQEDAPDEMGKYIKSFVERVLKNEQ
# modifications: RLuc (Renilla Luc)
# B5: LucPPe-146-1H2: thermostable luciferase from Photuris pennsylvanica, SEQ ID NO: 51 (protein)
# chain: MADKNILYGPEPFYPLEDGTAGEQMFDALSRYAAIPGCIALTNAHTKENVLYEEFLKLSCRLAESFKKYGLKQNDTIAVCSENSLQFFLPVIASLYLGIIVAPVNDKYIERELIHSLGIVKPRIVFCSKNTFQKVLNVKSKLKSIETIIILDLNEDLGGYQCLNNFISQNSDSNLDVKKFKPYSFNRDDQVASIMFSSGTTGLPKGVMLTHKNIVARFSIAKDPTFGNAINPTSAILTVIPFHHGFGMMTTLGYFTCGFRVVLMHTFEEKLFLQSLQDYKVESTLLVPTLMAFLAKSALVEKYDLSHLKEIASGGAPLSKEIGEMVKKRFKLNFVRQGYGLTETTSAVLITPKGDAKPGSTGKIVPLHAVKVVDPTTGKILGPNEPGELYFKGPMIMKGYYNNEEATKAIIDNDGWLRSGDIAYYDNDGHFYIVDRLKSLIKYKGYQVAPAEIEGILLQHPYIVDAGVTGIPDEAAGELPAAGVVVQTGKYLNEQIVQDYVASQVSTAKWLRGGVKFLDEIPKGSTGKIDRKVLRQMLEKHTNG
# modifications: LucPPe-146-1H2
# Experiments:
# [1] = test system: BC-3-pLenti-GLuc cells; test: Matador assay, drug induced cytotoxicity, BC-3; assay type: cell-based; details: 96 hours, different doses
# Method: (§2) The cell pellets were lysed in 1× Renilla Luciferase Assay Lysis Buffer by diluting one volume of 5× Renilla Luciferase Assay Lysis Buffer (Promega, Cat #E2820) into four volumes of distilled water. GLuc activity was measured in the cellular supernatants and cell lysates fractions separately in triplicate by addition of 0.25× coelentrazine assay buffer (15 μl of assay buffer added to 15 μl of sample in a 384 well plate) to each fraction. For each sample, the average GLuc activity in the cellular supernatant was divided by the average GLuc activity in the cell lysates to normalize for difference in the number of GLuc expressing cells.
# [2] = test system: BCBL-1-pLenti-GLuc cells; test: Matador assay, drug induced cytotoxicity, BCBL-1; details: 96 hours, different doses
# Method: as §2
# [3] = test system: CAR CD8SP2-CD19MM-(vL-vH)-Myc-BBz-T2A-PAC T cell induced death of RAJI cells stably expressing GLuc; test: Matador assay, drug modulation of CAR-T cell induced lysis of RAJI-GLuc cells; assay type: cell-based, Human; details: E:T 5:1, 4 hours co-culture; Dasatinib 50 nM and 100 nM
# Method: Human peripheral blood T cells isolated using CD3 magnetic beads were infected with lentiviruses expressing the CAR construct CD8SP2-CD19MM-(vL-vH)-Myc-BBz-T2A-PAC [SEQ ID NO: 82] targeting CD19 and selected with puromycin. CAR-T cells were pre-incubated with the indicated concentrations of Dasatinib and Imatinib for approximately 30 min at 37° C. The drug-treated and untreated T cells were plated in a white 384-well plate. […] Dasatinib (Das) and Imatinib (Imat) were added to the wells to maintain the final concentrations as indicated. […] Therefore, the assay can be used to screen for and identify candidate compounds that modulate the activity of cytotoxic cells, such as cytotoxic T cells, NK cells, CAR-T cells and T cells expressing engineered TCRs.
# [4] = test system: L428-GLuc cells; test: Matador assay, antibody drug conjugate induced cell death, L428; assay type: cell-based; details: 5 days of drug treatment
# Method: (§1) We next used the Matador cytotoxicity assay to measure cell death induced by CD30-directed antibody-drug-conjugate (ADC), Brentuximab vedotin (Adcetris). […] Similarly, Jurkat cells were transduced with MSCVhygro-GLuc-HA-G02 (SEQ ID NO: 95) retroviral vector and selected with hygromycin to generate Jurkat-GLuc stable cell line. These GLuc-expressing target cells were plated at a concentration of 10×10^5 cells/well in a flat-bottom 24 well plate in 500 μl of phenol-red-free RPMI medium with 10% FBS and treated with the indicated dose of Brentuximab vedotin. After 5 days of drug treatment, the cells were mixed well, collected in 1.5 ml microfuge tubes and divided into 3 groups of 166 μl each. For the first group, the cells with cell supernatant were directly assayed for luciferase activity by plating 30 μl of cells/well in a white 384 well plate in triplicate. For the second group, 166 μl of cells were centrifuged and only cell supernatants were collected in a new tube and plated at 30 μl/well in triplicate in a white 384 well plate. […] The luciferase activity was precisely measured by BioTek synergy plate reader by injecting 0.5× CTZ assay buffer containing native coeloentrazine into each well of the 384 well plate in a well mode. […]
# [5] = test system: KMH2-GLuc cells; test: Matador assay, antibody drug conjugate induced cell death, KMH2; assay type: cell-based; details: 5 days of drug treatment
# Method: as §1
# [6] = test system: Jurkat-GLuc cells; test: Matador assay, antibody drug conjugate induced cell death, Jurkat; assay type: cell-based; details: 5 days of drug treatment
# Method: as §1
# [7] = test system: RAJI cells expressing GLuc; test: Antibody-dependent cellular cytotoxicity (ADCC) Matador assay; assay type: cell-based
# Method: Antibody-dependent cellular cytotoxicity (ADCC) assay was performed performed essentially as described earlier (Teeling, French et al. 2004). To determine the cytotoxicity of Rituximab monoclonal antibody, the cell death was assessed using Matador assay. Peripheral Blood Mononuclear Cells (PBMC) were isolated by Ficoll-Hypaque gradient centrifugation from buffy coat cells obtained from a de-identified healthy donor as a source of natural effector. […] The cells were either left untreated, or treated with 1 μg/ml or 10 μg/ml of Rituximab. The plates were incubated at 37° C. for 4 hours in a CO2 incubator. After incubation for 4 hours, the cell death was assessed by luciferase assay by addition of CTZ assay buffer containing native coelentrazine to the wells as described earlier.
# [8] = Stability of luciferases in cell culture supernatants at 37° C. under Matador assay conditions; assay type: physicochemical; details: for time for which luminescence was stable: cell culture supernatants of K562 cells co-cultured with NK92MI
# Method: Post-incubation, the cell-free supernatants were divided into 7 different tubes and frozen immediately at −80° C. The tubes were then incubated at 37° C. for 0, 0.5, 1, 2, 4, 6, and 24 hours.
# Although thermostable luciferases are stable at 37° C., it was not obvious whether thermostability is the only criteria for stability of a reporter under the conditions used in the cytotoxicity assays. Thus, a thermostable luciferase could be degraded under the culture conditions of the cytotoxicity assay due to the activity of proteases that are present in the serum or are released during the process of cell death. Therefore, to examine whether thermostable luciferases are suitable for inclusion in the Matador cytotoxicity assay, K562 cells stably expressing LucPPe-146-1H2 mutant were plated in a 6-well plate, treated with media alone (control) or co-cultured with NK92MI at Effector:Target (E:T) ratio of 1:1 for 4 hours. After incubation, cell-free supernatants were transferred into 7 different tubes and frozen immediately at −80° C. The tubes were directly transferred to 37° C. (from −80° C.) and were incubated for indicated time periods (0 to 24 hours). The luminescence was measured by adding D-luciferin containing assay buffer directly to each well in well mode. […] Furthermore, the luminescence signal was stable in the cell culture medium for nearly 4-6 hours.
# [9] = cited from earlier work
# [10] = Stability of luciferase activity in supernatants after freezing and thawing; assay type: physicochemical; details: supernatants frozen, thawed two weeks later
# From the text: Two weeks later, the supernatants were thawed and then re-assayed after addition of coeloentrazine.
molecule,measurement,setting,value
COc1c(C)cnc(Cn2cnc3c(Cl)nc(N)nc32)c1C [BIIB021],GLuc activity in the supernatant normalized to cell lysates,[1],significant increase in GLuc activity in the supernatant
same,GLuc activity in the supernatant normalized to cell lysates,[2],significant increase in GLuc activity in the supernatant
Cc1ccc(NC(=O)c2ccc(CN3CCN(C)CC3)cc2)cc1Nc1nccc(-c2cccnc2)n1 [Imatinib],CAR-T cell induced cell death (GLuc activity),[3],no effect
Cc1sc2c(c1C)C(c1ccc(Cl)cc1)=N[C@@H](CC(=O)OC(C)(C)C)c1nnc(C)n1-2 [JQ1],GLuc activity in the supernatant normalized to cell lysates,[1],significant increase in GLuc activity in the supernatant
same,GLuc activity in the supernatant normalized to cell lysates,[2],significant increase in GLuc activity in the supernatant
Brentuximab vedotin,GLuc activity in cell supernatant normalized for GLuc activity in cell lysates,[4],significant increase in GLuc activity in cell supernatant
same,GLuc activity in the supernatant,[4]; not normalized,increase in GLuc activity in the supernatant
same,GLuc activity in cell supernatant normalized for GLuc activity in cell lysates,[5],significant increase in GLuc activity in cell supernatant
same,GLuc activity in the supernatant,[5]; not normalized,increase in GLuc activity in the supernatant
same,GLuc activity in cell supernatant normalized for GLuc activity in cell lysates,[6],significant increase in GLuc activity in cell supernatant
same,GLuc activity in the supernatant,[6]; not normalized,increase in GLuc activity in the supernatant
"rituximab: Rituximab monoclonal antibody, obtained from Genentech",luciferase activity,[7]; RAJI cells stably expressing NLuc,Essentially similar results
same,increase in GLuc activity,"[7]; in the presence of PBMC, 4 hours, vs untreated cells",greater than 10 fold
same,luciferase activity,"[7]; in the presence of PBMC, 1 μg/ml and 10 μg/ml",increase in luciferase activity
same,luciferase activity,"[7]; rituximab alone, 1 μg/ml and 10 m/ml, 4 hours, vs untreated cells",increase in luciferase activity
B1,time for which luminescence was stable,[8],24 h
B2,time for which luminescence was stable,[8],24 h
same,time activity is retained in culture medium,[9]; 37° C.,> 15 h
same,specific activity relative to firefly or Renilla luciferases,[9]; configured for glow-type assays,~150 fold
B3,time for which luminescence was stable,[8],24 h
B4,luciferase activity after freezing and thawing,[10],no major change
B5,time for which luminescence signal was stable in the cell culture medium,[8]; supernatants of K562 LucPPe-146-1H2 cells,4 to 6 h
